Calls of active or inactive are those of the source.

What is called IC50 is the concentration that inhibits the measured activity by half. For orientation: EC50 means the midpoint of the concentration-response curve. A word on the AC50: it is the concentration at which the activity in the assay is half-maximal.

Assay [1] has as its target T1, Calpain-2 catalytic subunit (Sus scrofa, UniProt P43367).
T1 sequence (P43367 whole entry): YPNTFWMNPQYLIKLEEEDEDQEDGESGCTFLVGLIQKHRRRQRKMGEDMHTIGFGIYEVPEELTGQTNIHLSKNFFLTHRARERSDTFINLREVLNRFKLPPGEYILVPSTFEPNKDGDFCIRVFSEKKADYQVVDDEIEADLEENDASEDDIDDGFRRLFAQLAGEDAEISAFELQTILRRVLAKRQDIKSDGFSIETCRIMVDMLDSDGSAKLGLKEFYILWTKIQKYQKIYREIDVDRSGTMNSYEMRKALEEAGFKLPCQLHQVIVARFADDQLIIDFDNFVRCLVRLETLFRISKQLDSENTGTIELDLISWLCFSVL
Put plainly: pig calpain II inhibitor potency, dose response, biochemical, fluorogenic peptide substrate (AID 1420). Format: functional.

Assay [2] has as its target Eukaryotic translation initiation factor 4E (Mus musculus, UniProt P63073). The assay is described as follows: eIF4E–eIF4G protein interaction inhibitors, dose response, biochemical, TR-FRET (AID 855).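 Note: potency for disrupting eIF4E binding to eIF4GI seen as loss of FRET.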 The assay is classed as functional. (Time-resolved FRET reads energy transfer from a long-lived donor to a nearby acceptor.)
The target in another assay is T2, Aminopeptidase N (Plasmodium falciparum FcB1/Columbia, UniProt O96935).
T2 sequence (O96935 whole entry): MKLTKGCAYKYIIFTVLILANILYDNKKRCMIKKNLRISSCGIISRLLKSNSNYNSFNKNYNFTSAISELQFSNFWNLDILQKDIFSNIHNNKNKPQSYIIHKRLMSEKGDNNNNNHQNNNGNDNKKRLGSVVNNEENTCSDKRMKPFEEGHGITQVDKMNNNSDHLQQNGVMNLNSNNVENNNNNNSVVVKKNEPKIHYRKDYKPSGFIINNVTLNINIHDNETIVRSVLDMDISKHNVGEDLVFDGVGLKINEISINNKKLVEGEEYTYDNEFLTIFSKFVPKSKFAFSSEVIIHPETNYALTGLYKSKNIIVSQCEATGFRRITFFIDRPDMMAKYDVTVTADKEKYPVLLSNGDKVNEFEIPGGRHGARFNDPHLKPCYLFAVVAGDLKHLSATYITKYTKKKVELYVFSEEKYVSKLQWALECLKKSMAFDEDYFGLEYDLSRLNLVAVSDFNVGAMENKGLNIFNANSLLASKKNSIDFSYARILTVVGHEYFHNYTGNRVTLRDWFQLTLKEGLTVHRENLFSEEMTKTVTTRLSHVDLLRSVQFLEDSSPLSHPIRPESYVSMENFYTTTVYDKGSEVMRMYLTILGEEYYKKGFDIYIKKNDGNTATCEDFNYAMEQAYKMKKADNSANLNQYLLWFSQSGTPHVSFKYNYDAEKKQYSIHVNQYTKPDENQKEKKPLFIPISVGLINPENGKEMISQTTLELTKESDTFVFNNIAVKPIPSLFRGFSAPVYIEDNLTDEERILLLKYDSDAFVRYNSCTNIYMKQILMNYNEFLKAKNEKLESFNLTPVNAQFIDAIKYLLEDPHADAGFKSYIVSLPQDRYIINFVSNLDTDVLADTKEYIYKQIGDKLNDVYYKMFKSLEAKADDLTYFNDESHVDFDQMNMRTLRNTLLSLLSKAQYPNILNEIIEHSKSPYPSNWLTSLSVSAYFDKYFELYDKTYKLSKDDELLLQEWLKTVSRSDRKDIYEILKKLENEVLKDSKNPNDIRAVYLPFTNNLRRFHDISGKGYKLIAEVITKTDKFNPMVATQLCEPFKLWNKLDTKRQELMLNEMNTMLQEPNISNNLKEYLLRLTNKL
The assay is described as follows: P. falciparum M1AAP inhibitors, biochemical, fluorogenic H-Leu-NHMec substrate, 1536-well (AID 1445). Details: species or system Plasmodium falciparum 3D7, 3D7.

The nature of assay [3]: growth suppression of PTEN-null colon cells, dose response, cell-based, HCT116 PTEN knockout (AID 1047).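 Note: HCT116 colon tumor cells with PTEN knocked out; cells exposed to compound for 60 hours before readout; potency for loss of cell viability measured by luminescence.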 The assay is classed as functional.
The target of assay [4] is T3, Mannose-6-phosphate isomerase (Homo sapiens, UniProt P34949).
T3 sequence (P34949 whole entry): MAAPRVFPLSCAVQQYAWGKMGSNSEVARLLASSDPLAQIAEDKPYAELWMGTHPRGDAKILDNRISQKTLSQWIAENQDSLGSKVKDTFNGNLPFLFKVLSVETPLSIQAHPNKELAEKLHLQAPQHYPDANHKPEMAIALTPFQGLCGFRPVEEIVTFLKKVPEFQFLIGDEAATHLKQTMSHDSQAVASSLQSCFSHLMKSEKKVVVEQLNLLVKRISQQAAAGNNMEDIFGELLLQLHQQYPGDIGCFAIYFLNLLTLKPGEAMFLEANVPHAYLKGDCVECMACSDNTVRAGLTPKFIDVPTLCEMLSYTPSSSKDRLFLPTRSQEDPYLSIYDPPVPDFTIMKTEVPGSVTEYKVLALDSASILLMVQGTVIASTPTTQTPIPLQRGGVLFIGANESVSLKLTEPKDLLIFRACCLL
Put plainly: human PMI inhibitors, high substrate, primary screen, biochemical, fluorescence intensity, high mannose 6-phosphate (AID 1220).

Assay [5] concerns the target T4, Replicative DNA helicase DnaB (Mycobacterium tuberculosis, UniProt P9WMR3).
T4 sequence (P9WMR3 whole entry): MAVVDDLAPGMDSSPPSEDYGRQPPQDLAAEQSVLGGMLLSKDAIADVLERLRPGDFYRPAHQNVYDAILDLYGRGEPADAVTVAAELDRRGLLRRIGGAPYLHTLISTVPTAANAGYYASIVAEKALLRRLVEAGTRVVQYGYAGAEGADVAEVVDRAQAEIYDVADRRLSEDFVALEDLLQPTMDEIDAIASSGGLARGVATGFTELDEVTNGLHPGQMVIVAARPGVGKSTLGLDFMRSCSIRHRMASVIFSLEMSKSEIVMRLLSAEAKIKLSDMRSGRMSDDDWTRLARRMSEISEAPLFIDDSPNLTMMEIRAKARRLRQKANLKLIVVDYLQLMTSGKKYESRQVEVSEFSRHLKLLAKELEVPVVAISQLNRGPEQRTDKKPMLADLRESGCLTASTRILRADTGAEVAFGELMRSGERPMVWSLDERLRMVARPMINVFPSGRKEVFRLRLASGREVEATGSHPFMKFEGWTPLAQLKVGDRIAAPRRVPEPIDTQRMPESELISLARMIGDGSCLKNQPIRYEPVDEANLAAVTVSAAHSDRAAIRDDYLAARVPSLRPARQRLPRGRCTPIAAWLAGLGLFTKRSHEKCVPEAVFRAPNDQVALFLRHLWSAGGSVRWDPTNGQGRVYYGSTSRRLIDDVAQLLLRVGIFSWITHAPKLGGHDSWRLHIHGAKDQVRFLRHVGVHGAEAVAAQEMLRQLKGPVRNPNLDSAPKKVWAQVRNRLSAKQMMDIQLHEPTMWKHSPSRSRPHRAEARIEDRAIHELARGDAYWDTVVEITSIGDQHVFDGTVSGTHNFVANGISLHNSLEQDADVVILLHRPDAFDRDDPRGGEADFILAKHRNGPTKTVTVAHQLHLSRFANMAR
The assay is described as follows: DnaB intein splicing inhibitors, dose response, biochemical, cell-free fluorescence (AID 449749). The assay is classed as functional.

The target in another assay is T5, Protein RecA (Mycobacterium tuberculosis, UniProt P9WHJ3).
T5 sequence (P9WHJ3 whole entry): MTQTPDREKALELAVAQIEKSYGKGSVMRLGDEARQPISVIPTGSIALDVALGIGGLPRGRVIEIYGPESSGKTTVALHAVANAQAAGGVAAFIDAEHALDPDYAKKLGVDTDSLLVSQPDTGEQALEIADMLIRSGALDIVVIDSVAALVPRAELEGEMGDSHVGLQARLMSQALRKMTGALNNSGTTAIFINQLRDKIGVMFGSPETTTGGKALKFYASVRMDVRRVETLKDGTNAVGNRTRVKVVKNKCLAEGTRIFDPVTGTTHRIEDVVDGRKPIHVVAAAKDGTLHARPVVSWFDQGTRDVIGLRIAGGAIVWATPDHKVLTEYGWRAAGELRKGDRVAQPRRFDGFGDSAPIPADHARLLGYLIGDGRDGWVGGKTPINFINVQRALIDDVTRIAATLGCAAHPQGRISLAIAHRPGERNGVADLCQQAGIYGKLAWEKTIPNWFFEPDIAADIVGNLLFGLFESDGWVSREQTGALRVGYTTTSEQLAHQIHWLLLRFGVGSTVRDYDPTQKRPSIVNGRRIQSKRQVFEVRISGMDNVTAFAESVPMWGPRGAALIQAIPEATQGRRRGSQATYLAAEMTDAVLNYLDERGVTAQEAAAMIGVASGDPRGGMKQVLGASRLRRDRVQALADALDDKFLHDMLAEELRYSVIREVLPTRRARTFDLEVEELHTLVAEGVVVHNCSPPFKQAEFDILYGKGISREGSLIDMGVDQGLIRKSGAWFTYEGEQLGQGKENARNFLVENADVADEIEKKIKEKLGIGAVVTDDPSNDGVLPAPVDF
The assay is described as follows: Fluorescence Cell-Free Homogeneous Dose Retest to Identify Inhibitors of RecA-Intein Splicing Activity. [Related pubchem assays (depositor defined):AID2097, AID2223, AID489010, AID492950]. The assay is classed as functional.

Assay [6] has as its target Glyceraldehyde-3-phosphate dehydrogenase (Homo sapiens, UniProt P04406).
Assay [7] addresses T6, DNA repair protein RAD52 homolog (Homo sapiens, UniProt P43351).
T6 sequence (P43351 whole entry): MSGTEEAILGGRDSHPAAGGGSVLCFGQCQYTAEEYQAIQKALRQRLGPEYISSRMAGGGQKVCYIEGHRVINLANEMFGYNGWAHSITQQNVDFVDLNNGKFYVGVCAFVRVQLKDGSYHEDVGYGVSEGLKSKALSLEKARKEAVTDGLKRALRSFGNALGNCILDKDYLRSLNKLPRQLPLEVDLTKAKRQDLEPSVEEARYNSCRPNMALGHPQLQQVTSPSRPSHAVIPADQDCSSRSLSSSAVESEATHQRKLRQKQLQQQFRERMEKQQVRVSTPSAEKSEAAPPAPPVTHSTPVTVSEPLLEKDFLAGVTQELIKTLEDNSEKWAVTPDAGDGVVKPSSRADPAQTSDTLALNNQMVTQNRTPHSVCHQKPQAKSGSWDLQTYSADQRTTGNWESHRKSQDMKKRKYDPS
The assay is classed as functional, biochemical.

A further assay concerns the target T7, Leucine aminopeptidase (Plasmodium falciparum 3D7, UniProt Q8IL11).
T7 sequence (Q8IL11 whole entry): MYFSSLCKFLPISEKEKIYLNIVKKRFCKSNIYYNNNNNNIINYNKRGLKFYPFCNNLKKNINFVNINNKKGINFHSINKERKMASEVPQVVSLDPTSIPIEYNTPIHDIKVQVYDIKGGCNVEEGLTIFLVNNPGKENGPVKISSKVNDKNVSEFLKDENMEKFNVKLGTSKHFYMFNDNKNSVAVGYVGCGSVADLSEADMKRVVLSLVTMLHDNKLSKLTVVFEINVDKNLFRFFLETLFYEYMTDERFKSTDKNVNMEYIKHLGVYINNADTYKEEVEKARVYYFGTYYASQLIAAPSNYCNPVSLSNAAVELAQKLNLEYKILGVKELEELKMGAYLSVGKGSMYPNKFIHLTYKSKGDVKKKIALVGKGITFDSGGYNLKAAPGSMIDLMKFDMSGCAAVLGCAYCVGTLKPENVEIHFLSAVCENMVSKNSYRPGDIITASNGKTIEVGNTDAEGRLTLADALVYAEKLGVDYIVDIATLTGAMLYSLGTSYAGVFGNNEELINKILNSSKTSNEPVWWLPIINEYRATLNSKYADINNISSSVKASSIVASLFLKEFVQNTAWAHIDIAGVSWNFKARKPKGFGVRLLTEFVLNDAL
Put plainly: P. falciparum M17LAP inhibitors, primary screen, biochemical, fluorogenic H-Leu-NHMec substrate, 1536-well (AID 1619). Format: functional.

Sequence of Eukaryotic translation initiation factor 4E (P63073 whole entry): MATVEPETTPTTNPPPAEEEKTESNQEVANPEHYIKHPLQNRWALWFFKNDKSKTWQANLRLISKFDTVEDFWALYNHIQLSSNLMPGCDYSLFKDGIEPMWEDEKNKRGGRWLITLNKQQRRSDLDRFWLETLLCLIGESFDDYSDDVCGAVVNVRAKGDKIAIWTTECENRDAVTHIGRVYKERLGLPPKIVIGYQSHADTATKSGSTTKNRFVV
Sequence of Glyceraldehyde-3-phosphate dehydrogenase (P04406 whole entry): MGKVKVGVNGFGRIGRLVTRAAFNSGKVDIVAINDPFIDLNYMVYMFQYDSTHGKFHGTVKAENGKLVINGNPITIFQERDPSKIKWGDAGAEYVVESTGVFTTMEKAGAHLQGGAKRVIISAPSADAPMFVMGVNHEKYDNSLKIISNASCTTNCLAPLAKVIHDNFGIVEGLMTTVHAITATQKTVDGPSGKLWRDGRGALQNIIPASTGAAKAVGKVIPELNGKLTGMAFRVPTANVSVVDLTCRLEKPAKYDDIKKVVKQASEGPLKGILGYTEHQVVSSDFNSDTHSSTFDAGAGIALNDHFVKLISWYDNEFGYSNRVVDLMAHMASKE

Regarding `O=C(/C=C/c1ccc([N+](=O)[O-])cc1)NCCSc1ccccc1`, in assay [1], the IC50 is recorded as 15.9 µM (not active). In the case of `COc1ccccc1NC(=O)c1ccc(NC(=O)c2cc3c(s2)CCC3)cc1`, the IC50 in assay [2] was > 64 µM (inactive). As to `O=C(CN(C(=O)CSc1nnc(COc2ccccc2)o1)c1ccc(F)cc1)NC1CCCCC1`, the half-inhibitory concentration (IC50) in assay [1] is given as 3.19 µM (not active). In the case of `CN=C(S)N=Nc1c(O)[nH]c2ccccc12`, the IC50 at Aminopeptidase N was 47.9 µM (active).

On to `O=C(Nc1cccc2ccccc12)c1ccc(Br)o1`, for which, in assay [2], the IC50 was > 64 µM (inactive). On to `COC(=O)c1cn(NC(=O)c2cc(OC)c(OC)c(OC)c2)c(=O)c2ccccc12`, for which, in [3], the EC50 was 41.4 µM (active). As for `Cc1cc(OCc2nnn[nH]2)c2c3c(c(=O)oc2c1)CCCC3`, the IC50 at Aminopeptidase N is 68.9 µM (active). For `Nc1ccc2ncccc2c1`, the concentration for half-maximal inhibition (IC50) in assay [4] was > 50 µM (not active). In assay [5], the AC50 is 6.42 µM (active). Further, the EC50 on Protein RecA is 5.95 µM (active). On to `CCCCOC(=O)c1ccc(S(N)(=O)=O)o1`, for which the IC50 in assay [6] is on record as > 100 µM (not active).

In the case of `Cc1sc(NC(=S)NC(=O)c2cccs2)nc1-c1ccc(C(C)C)cc1`, in assay [1], the IC50 is recorded as 26 µM (not active). For the molecule `C=CCn1c(=N)c(C(=O)NCCCOC)cc2c(=O)n3cccc(C)c3nc21`, the 50% inhibitory concentration (IC50) at Aminopeptidase N was 47.6 µM (active). Take `C/C(NCC1CCCO1)=C1/C(=O)NC(=O)N(c2ccccc2)C1=O` (stereo not drawn): in assay [2], the IC50 was > 64 µM (inactive). For `CCc1nc(N=C(N)N)nc2ccccc12`, on Aminopeptidase N, the 50% inhibitory concentration (IC50) was 48.5 µM (active). The AC50 in assay [7] is 20.2 µM (active). As to `Cc1ccc(C(=O)Nc2nc(=O)n(C(=O)c3ccccc3Cl)s2)cc1`, the results for the IC50 on Leucine aminopeptidase and on Aminopeptidase N were 13.8 µM (active) and 38.8 µM (active), respectively.

For the origin of these results see ChEMBL document CHEMBL1201862, “PubChem BioAssay data set” (2004).
